What was measured:
Mustela putorius furo = test: In vivo antiemetic activity against radiation-induced emesis in ferret.; type: functional
Substance-P receptor = Substance-P receptor (Homo sapiens, UniProt P25103); test: Inhibition of [3H]-substance P binding to human NK1 receptor expressed in chinese hamster ovary cells; type: cell-based, CHO
Sequence of Substance-P receptor (P25103 whole entry): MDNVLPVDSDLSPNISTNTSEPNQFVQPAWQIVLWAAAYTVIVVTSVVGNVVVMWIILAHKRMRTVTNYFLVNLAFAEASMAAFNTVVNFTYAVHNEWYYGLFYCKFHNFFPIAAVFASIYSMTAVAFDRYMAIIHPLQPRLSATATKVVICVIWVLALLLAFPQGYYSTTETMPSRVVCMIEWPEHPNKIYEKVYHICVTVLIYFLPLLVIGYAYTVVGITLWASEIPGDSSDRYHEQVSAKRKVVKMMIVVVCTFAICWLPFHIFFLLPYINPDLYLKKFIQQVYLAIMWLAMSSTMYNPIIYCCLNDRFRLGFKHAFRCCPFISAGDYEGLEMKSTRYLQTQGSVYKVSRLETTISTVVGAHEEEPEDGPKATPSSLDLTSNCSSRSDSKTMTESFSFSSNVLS

SMILES	ED90 (Mustela putorius furo) [mg/kg]	Ki (Substance-P receptor) [nM]
COc1ccc(-n2nnnc2C(F)(F)F)cc1CN[C@H]1CCCN[C@H]1c1ccccc1.Cl.Cl [VOFOPITANT DIHYDROCHLORIDE]	0.03	0.0251
COc1ccc(-n2cnnn2)cc1CN[C@H]1CCCN[C@H]1c1ccccc1.Cl.Cl	0.1	0.0398
COc1ccc(-n2nnnc2S(C)(=O)=O)cc1CN[C@H]1CCCN[C@H]1c1ccccc1.Cl.Cl	> 1	0.0631
COc1ccc(-n2nnnc2NC(C)=O)cc1CN[C@H]1CCCN[C@H]1c1ccccc1		0.251
CCN(CC)c1nnnn1-c1ccc(OC)c(CN[C@H]2CCCN[C@H]2c2ccccc2)c1		2
COc1ccc(-n2nnnc2N)cc1CN[C@H]1CCCN[C@H]1c1ccccc1		1
COc1ccc(-n2nnnc2C2CC2)cc1CN[C@H]1CCCN[C@H]1c1ccccc1.Cl.Cl	> 1	0.0794
COc1ccc(-n2nnnc2C)cc1CN[C@H]1CCCN[C@H]1c1ccccc1.Cl.Cl	0.15	0.0501
CCc1nnnn1-c1ccc(OC)c(CN[C@H]2CCCN[C@H]2c2ccccc2)c1.Cl.Cl	0.3	0.0501
CCCc1nnnn1-c1ccc(OC)c(CN[C@H]2CCCN[C@H]2c2ccccc2)c1.Cl.Cl	> 3	0.0398
COc1ccc(-n2nnnc2SC)cc1CN[C@H]1CCCN[C@H]1c1ccccc1.Cl.Cl	1	0.0398
COc1ccc(-n2nnnc2-c2ccccc2)cc1CN[C@H]1CCCN[C@H]1c1ccccc1.Cl.Cl	> 1	0.398
